Test results taken from patent US9850203B2, “Autotaxin inhibitor compounds” (PharmAkea, Inc., priority 2013, dated 2017).

target: human autotaxin (ATX) (Homo sapiens (Human), UniProt Q13822); assay: Human Autotaxin Assay; format: biochemical; conditions: concentrated conditioned media from Hep3B cells; LPC substrate, choline release
Experimental: ATX activity is assayed in concentrated conditioned media from Hep3B human hepatocellular carcinoma cells by measuring the amount of choline released from the substrate, lysophosphatidylcholine (LPC) as it is cleaved to LPA. Conditioned media is collected from confluent Hep3B cells and concentrated 20-fold using Centriprep-30 filter devices (Millipore). To assay for autotaxin inhibition, 10-20 μL of the concentrated conditioned media is incubated with 2.5 μL of a test compound in DMSO and 72.5-82.5 μL lyso-PLD buffer (100 mM Tris pH 9, 500 mM NaCl, 5 mM MgCl2, 5 mM CaCl2, 0.05% Triton X-100 in the presence or absence of 0.2% fatty-acid-free human serum albumin) for 15 min at 37° C. After the 15 min incubation, 5 uL of 2 mM LPC (14:0; Avanti Polar Lipids Cat#855575C) diluted in lyso-PLD buffer is added for a final concentration of 100 uM and the incubation continues for 1.5-3 hours at 37° C.

Compound	IC50 [nM]
Cc1c(Sc2cccc(C(=O)O)c2)c2ccc(Cl)c(F)c2n1CC(=O)N1CCC(Cc2ccc(F)cc2)C1 (single isomer, unassigned; enantiomer b) [Compound 1-66, 3-((6-Chloro-7-fluoro-1-(2-(3-(4-fluorobenzyl)pyrrolidin-1-yl)-2-oxoethyl)-2-methyl-1H-indol-3-yl)thio)benzoic acid Enantiomer B]	500 to 3000
Cc1c(Sc2cccc(C(=O)O)c2)c2ccc(Cl)c(F)c2n1CC(=O)N1CCC(CCn2cccn2)CC1 [Compound 1-61, 3-((1-(2-(4-(2-(1H-Pyrazol-1-yl)ethyl)piperidin-1-yl)-2-oxoethyl)-6-chloro-7-fluoro-2-methyl-1H-indol-3-yl)thio)benzoic acid]	≤ 500
Cc1c(Sc2cccc(C(=O)O)c2)c2ccc(Cl)c(F)c2n1CC(=O)N1CCc2ccccc2C1 [Compound 1-79, 3-((6-Chloro-1-(2-(3,4-dihydroisoquinolin-2(1H)-yl)-2-oxoethyl)-7-fluoro-2-methyl-1H-indol-3-yl)thio)benzoic acid]	≤ 500
Cc1c(Sc2cccc(C(=O)O)c2F)c2ccc(Cl)c(F)c2n1CC(=O)N1CC(CN(C)C)C1 [Compound 2-71, 3-((6-Chloro-1-(2-(3-((dimethylamino)methyl)azetidin-1-yl)-2-oxoethyl)-7-fluoro-2-methyl-1H-indol-3-yl)thio)-2-fluorobenzoic acid]	≤ 500
Cc1c(Sc2cccc(C(=O)O)n2)c2ccc(Cl)c(F)c2n1CC(=O)N1CCc2ccccc21 [Compound 2-3]	≤ 500
Cc1c(Sc2cccc(C(=O)O)c2)c2ccc(Cl)c(F)c2n1CC(=O)N1CCc2cccnc21 [Compound 1-72, 3-((6-Chloro-1-(2-(2,3-dihydro-1H-pyrrolo[2,3-b]pyridin-1-yl)-2-oxoethyl)-7-fluoro-2-methyl-1H-indol-3-yl)thio)benzoic acid]	500 to 3000
Cc1c(Sc2cccc(C(=O)O)c2F)c2ccc(Cl)c(F)c2n1CC(=O)N1C[C@@H](O)[C@H](F)C1 [Compound 2-66, 3-((6-Chloro-7-fluoro-1-(2-((3R,4R)-3-fluoro-4-hydroxypyrrolidin-1-yl)-2-oxoethyl)-2-methyl-1H-indol-3-yl)thio)-2-fluorobenzoic acid]	≤ 500
Cc1c(Sc2cccc(C(=O)O)c2F)c2ccc(Cl)c(F)c2n1CC(=O)N1CCc2ccncc21 [Compound 2-60, 3-((6-Chloro-1-(2-(2,3-dihydro-1H-pyrrolo[2,3-c]pyridin-1-yl)-2-oxoethyl)-7-fluoro-2-methyl-1H-indol-3-yl)thio)-2-fluorobenzoic acid]	≤ 500
Cc1c(Sc2cccc(C(=O)O)c2F)c2ccc(Cl)c(F)c2n1CC(=O)N1CCC(C)(O)C1 (centres unmarked) [Compound 2-61, 3-((6-Chloro-7-fluoro-1-(2-(3-hydroxy-3-methylpyrrolidin-1-yl)-2-oxoethyl)-2-methyl-1H-indol-3-yl)thio)-2-fluorobenzoic acid]	≤ 500
Cc1c(Sc2cccc(C(=O)O)c2)c2ccc(Cl)c(F)c2n1CC(=O)N1CC(O)(C2CC2)C1 [Compound 1-82, 3-((6-Chloro-1-(2-(3-cyclopropyl-3-hydroxyazetidin-1-yl)-2-oxoethyl)-7-fluoro-2-methyl-1H-indol-3-yl)thio)benzoic acid]	≤ 500
Cc1c(Sc2cccc(C(=O)O)c2)c2ccc(Cl)c(F)c2n1CC(=O)N1CCCC(Cc2ccc(F)cc2)C1 (centres unmarked) [Compound 1-15, 3-((6-Chloro-7-fluoro-1-(2-(3-(4-fluorobenzyl)piperidin-1-yl)-2-oxoethyl)-2-methyl-1H-indol-3-yl)thio)benzoic acid]	500 to 3000
Cc1c(Sc2cccc(C(=O)O)c2)c2ccc(Cl)c(F)c2n1CC(=O)N1CCC(Cc2ccncc2)CC1 [Compound 1-63, 3-((6-Chloro-7-fluoro-2-methyl-1-(2-oxo-2-(4-(pyridin-4-ylmethyl)piperidin-1-yl)ethyl)-1H-indol-3-yl)thio)benzoic acid]	≤ 500
Cc1c(Sc2cccc(C(=O)O)c2)c2ccc(Cl)c(F)c2n1CC(=O)N1CCC2(CC1)CNC(=O)C2 [Compound 1-45, 3-((6-Chloro-7-fluoro-2-methyl-1-(2-oxo-2-(3-oxo-2,8-diazaspiro[4.5]decan-8-yl)ethyl)-1H-indol-3-yl)thio)benzoic acid]	≤ 500
Cc1c(Sc2cccc(C(=O)O)c2)c2ccc(Cl)c(F)c2n1CC(=O)N1CCC2(CC1)CC2C(=O)N1CCCC1 (centres unmarked) [Compound 1-40, 3-((6-Chloro-7-fluoro-2-methyl-1-(2-oxo-2-(1-(pyrrolidine-1-carbonyl)-6-azaspiro[2.5]octan-6-yl)ethyl)-1H-indol-3-yl)thio)benzoic acid]	500 to 3000
Cc1c(Sc2cccc(C(=O)O)c2)c2ccc(Cl)c(F)c2n1CC(=O)N1CCC2(CCN(Cc3ccccc3)CC2)C1 [Compound 1-67, 3-((1-(2-(8-Benzyl-2,8-diazaspiro[4.5]decan-2-yl)-2-oxoethyl)-6-chloro-7-fluoro-2-methyl-1H-indol-3-yl)thio)benzoic acid]	500 to 3000
CON(C)C(=O)Cn1c(C2CC2)c(Sc2cccc(C(=O)O)c2F)c2ccc(Cl)c(F)c21 [Compound 5-7, Sodium 3-((6-chloro-2-cyclopropyl-7-fluoro-1-(2-(methoxy(methyl)amino)-2-oxoethyl)-1H-indol-3-yl)thio)-2-fluorobenzoate]	500 to 3000
Cc1c(Sc2cccc(C(=O)O)n2)c2ccc(Cl)c(F)c2n1CC(=O)N1CC2(CC2)c2ccccc21 [Compound 2-54, 6-((6-Chloro-7-fluoro-2-methyl-1-(2-oxo-2-(spiro[cyclopropane-1,3′-indolin]-1′-yl)ethyl)-1H-indol-3-yl)thio)picolinic acid]	≤ 500
Cc1c(Sc2cccc(C(=O)O)n2)c2ccc(Cl)c(F)c2n1CC(=O)N1CC2(CCC2)c2c(F)cccc21 [Compound 3-104, 6-((6-Chloro-7-fluoro-1-(2-(4′-fluorospiro[cyclobutane-1,3′-indolin]-1′-yl)-2-oxoethyl)-2-methyl-1H-indol-3-yl)thio)picolinic acid]	≤ 500
Cc1c(Sc2cccc(C(=O)O)c2F)c2ccc(Cl)c(F)c2n1CC(=O)N1CC(C#N)C1 [Compound 2-67, 3-((6-Chloro-1-(2-(3-cyanoazetidin-1-yl)-2-oxoethyl)-7-fluoro-2-methyl-1H-indol-3-yl)thio)-2-fluorobenzoic acid]	≤ 500

Further lines, results first:

IC50 [nM]	Compound
≤ 500	Cc1c(Sc2cccc(C(=O)O)c2)c2ccc(Cl)c(F)c2n1CC(=O)N1CC2(CCC2)c2c(F)cccc21 [Compound 1-33, 3-((6-Chloro-7-fluoro-1-(2-(4′-fluorospiro[cyclobutane-1,3′-indolin]-1′-yl)-2-oxoethyl)-2-methyl-1H-indol-3-yl)thio)benzoic acid]
≤ 500	Cc1c(Sc2cccc(C(=O)O)c2F)c2ccc(Cl)c(F)c2n1CCN1CCc2ccccc21 [Compound 2-73, Sodium 3-((6-chloro-7-fluoro-1-(2-(indolin-1-yl)ethyl)-2-methyl-1H-indol-3-yl)thio)-2-fluorobenzoate]
≤ 500	Cc1c(Sc2cccc(C(=O)O)c2)c2ccc(Cl)c(F)c2n1CC(=O)N1CCC(OCc2ccc(F)c(F)c2)CC1 [Compound 1-13, 3-((6-Chloro-1-(2-(4-((3,4-difluorobenzyl)oxy)piperidin-1-yl)-2-oxoethyl)-7-fluoro-2-methyl-1H-indol-3-yl)thio)benzoic acid]
≤ 500	Cc1c(Sc2cccc(C(=O)O)c2F)c2ccc(Cl)c(F)c2n1CC(=O)N1CC2(CC2)c2cc(F)ccc21 [Compound 3-23, 3-[6-Chloro-7-fluoro-1-[2-(5′-fluorospiro[cyclopropane-1,3′-indoline]-1′-yl)-2-oxo-ethyl]-2-methyl-indol-3-yl]sulfanyl-2-fluoro-benzoic acid]
≤ 500	Cc1c(Sc2cccc(C(=O)O)c2)c2ccc(Cl)c(F)c2n1CC(=O)N1CC(O)(C(F)(F)F)C1 [Compound 1-84, 3-((6-Chloro-7-fluoro-1-(2-(3-hydroxy-3-(trifluoromethyl)azetidin-1-yl)-2-oxoethyl)-2-methyl-1H-indol-3-yl)thio)benzoic acid]
≤ 500	Cc1c(Sc2cccc(C(=O)O)c2)c2ccc(Cl)c(F)c2n1CC(=O)N1CCC(O)C1 (centres unmarked) [Compound 1-90, 3-((6-Chloro-7-fluoro-1-(2-(3-hydroxypyrrolidin-1-yl)-2-oxoethyl)-2-methyl-1H-indol-3-yl)thio)benzoic acid]
≤ 500	Cc1c(Sc2cccc(C(=O)O)c2)c2ccc(Cl)c(F)c2n1CC(=O)N(C)C [Compound 1-7, 3-((6-Chloro-1-(2-(dimethylamino)-2-oxoethyl)-7-fluoro-2-methyl-1H-indol-3-yl)thio)benzoic acid]
≤ 500	Cc1c(Sc2cccc(C(=O)O)c2)c2ccc(Cl)c(F)c2n1CC(=O)N1CC2CCCCC2C1 (centres unmarked) [Compound 1-98, 3-((6-Chloro-7-fluoro-1-(2-(hexahydro-1H-isoindol-2(3H)-yl)-2-oxoethyl)-2-methyl-1H-indol-3-yl)thio)benzoic acid]
≤ 500	Cc1c(Sc2cccc(C(=O)O)c2)c2ccc(Cl)c(F)c2n1CC(=O)N1CCc2ccccc21 [Compound 1-14, 3-((6-Chloro-7-fluoro-1-(2-(indolin-1-yl)-2-oxoethyl)-2-methyl-1H-indol-3-yl)thio)benzoic acid]
≤ 500	Cc1c(Sc2cccc(C(=O)O)c2)c2ccc(Cl)c(F)c2n1CC(=O)Nc1cnn(C)c1 [Compound 1-6, 3-((6-Chloro-7-fluoro-2-methyl-1-(2-((1-methyl-1H-pyrazol-4-yl)amino)-2-oxoethyl)-1H-indol-3-yl)thio)benzoic acid]
